Laboratory results published in patent US20140087362A1 (priority 2012, published 2014).
Entries after “also recorded” stand apart in the source; their conditions may differ.

Experiments:
[1] = system: A549 lung cancer cell line; test: Side population by Hoechst 33342 staining and flow cytometry; format: cell-based, human
HMLE cells = test: EMT induction in human mammary epithelial cells; format: cell-based
Protocol: Human mammary epithelial cells (HMLE; Dr. Robert A. Weinberg) were plated at a density of about 50% in DMEM/F-12 medium and incubated overnight at 37° C. in a CO2 incubator. The cells were then cultured in inducing medium (DMEM/F-12 (1:1) medium supplemented with insulin, hydrocortisone, 5% FBS, and 2.5 ng/mL TGF-β1) to induce EMT or non-inducing medium (i.e. without TGF-β1). The inducing medium or non-inducing medium was refreshed every 3 days for 12 days. Following EMT treatment, one set of cells were immunostained for E-cadherin, vimentin and fibronectin expression, three widely used EMT markers. Another set of cells was harvested, stained for CD44 and CD24 expression and analyzed by flow cytometry as described in Example 27.
For immunostaining of E-cadherin, vimentin and fibronectin, cells were fixed and permeabilized on the culture plates and incubated with FITC-conjugated antibodies against E-cadherin, vimentin and fibronectin using a standard cell staining protocol. Following removal of unbound antibody, the cells were counterstained with the nuclear dye 4′,6-diamidino-2-phenylindole (DAPI). After staining, phase contrast and fluorescent images of the cells were taken using a fluorescence microscope, equipped with the appropriate filters and a digital camera, using a 100× objective.

ALDH1 = test: ALDEFLUOR assay with or without DEAB; format: cell-based, human
Protocol: Aldehyde dehydrogenase (ALDH1) is a useful marker for isolating primitive stem cell populations including normal human mammary stem and progenitor cells as well as transformed tumor-initiating stem cells. In this example, GI-101A, MCF7, MDA-MB-231, Hs 578T, and SUM139PT breast cancer cell lines were tested for activity of the ALDH1 marker using a commercial assay to detect ALDH1 expression and thereby identify tumor stem cells (the ALDEFLUOR® assay (available from Stemcell™ Technologies, Vancouver BC, CA; see Ginestier et al. (2007) Cell Stem Cell 1(5):555-567)). […] The ALDH substrate fluoresces upon cleavage by ALDH.
ALDEFLUOR® assay fluorescence was excited at 488 nm and fluorescence emission was detected using a standard FITC 530/30 band pass filter. The sorting gates were established using propidium iodide stained cells for viability and the ALDEFLUOR® assay-stained cells treated with DEAB as negative controls.
To supplement the flow cytometric analysis, the presence of ALDH in GI-101A was assessed visually by fluorescence microscopy. ALDEFLUOR® assay-labeled cells, with or without DEAB, were counterstained with the nuclear dye 4′,6-diamidino-2-phenylindole (DAPI). Phase contrast and fluorescent images of the cells were taken using a fluorescence microscope, equipped with the appropriate filters and a digital camera, using a 100× objective.
First an ALDEFLUOR assay was performed on GI-101 cells in the presence or absence of DEAB inhibitor as described in Example 21. The ALDEFLUOR stained cells were then subjected to staining with CD44, CD24 and CD49f antibodies. The ALDEFLUOR stained cells were centrifuged for 10 minutes at 300×g at 4° C. and resuspended to a concentration of 2×10^7 cells per mL in cold staining buffer. 50 μL it of cells were added to 12×75 round bottoms tubes on ice for each stain. 10 μL diluted antibody mixture was added and incubated for 30-45 minutes in an ice bath to minimize release of the Hoechst dye. […] The cells were washed twice with 2 mL staining buffer at 4° C. The cells were resuspended in 400 μL it staining buffer and kept on ice until analyzed by flow cytometry.

mouse bone marrow cells = test: Side population by Hoechst 33342 staining and flow cytometry

Which side population cells ([1]; 25 μM) does the source give for `COc1ccc2c3c([nH]c2c1)[C@H](C=C(C)C)N1C(=O)[C@@H]2CCCN2C(=O)[C@@H]1C3` [FTC, Fumitremorgin C] here?
The side population cells was 1.31±0.2%.

What about the side population cells ([1]; 50 μM) of the same molecule?
Its side population cells is 0.92±0.2%.

And the side population cells ([1]; 100 μM)?
The side population cells was 0.62±0.1%.

And the side population cells ([1]; 200 μM)?
Its side population cells is 0.46±0.08%.

Which results are given for “TGF-β1: transforming growth factor β used to induce EMT”?
CD44^+/CD24^−/low cells (HMLE cells; 2.5 ng/mL, 12 days EMT induction): 51.9%±3; EMT marker expression (E-cadherin, vimentin, fibronectin) (HMLE cells; 12 days post-EMT induction, versus non-induced): E-cadherin expression was down-regulated; also recorded: vimentin expression was up-regulated; also recorded: fibronectin expression was up-regulated

Which “ALDH− cells” value (ALDH1; CD44/CD24 staining set) does the source give for `CCN(CC)c1ccc(C=O)cc1` [DEAB] here?
The value was 99.9%.

What about the “ALDH+ cells” value (ALDH1; CD44/CD49f staining set) of the same molecule?
The value was 0.09%.

And the “ALDH− cells” value (ALDH1; CD44/CD49f staining set)?
The value was 99.9%.

What about the “ALDH+ cells” value (ALDH1; GI-101 cells, CD44/CD24 staining set) of the same molecule?
The value was 0.09%.

For `COC(=O)[C@H]1[C@H]2C[C@@H]3c4[nH]c5cc(OC)ccc5c4CCN3C[C@H]2C[C@@H](OC(=O)c2cc(OC)c(OC)c(OC)c2)[C@@H]1OC` [reserpine], which side population cells ([1]; 12.5 μM) is on record?
The side population cells was 1.51±0.1%.

And the side population cells ([1]; 25 μM)?
The side population cells was 0.56±0.08%.

What about the side population cells ([1]; 50 μM) of the same molecule?
The side population cells was 0.51±0.01%.

What about the side population cells ([1]; 200 μM) of the same molecule?
Its side population cells is 0.48±0.06%.

Which “side population, percent of registered events” value (mouse bone marrow cells; 50 μM) does the source give for `COc1ccc(CCN(C)CCCC(C#N)(c2ccc(OC)c(OC)c2)C(C)C)cc1OC` (stereo not shown) [Verapamil] here?
The value was 3.74±0.3%.

What about the “side population, percent of registered events” value (mouse bone marrow cells; 100 μM) of the same molecule?
The value was 1.76±0.1%.
